Test results published in US4968698A, “Nitrogen containing heterocyclic compounds” (Burroughs Wellcome Co., priority 1984, dated 1990).
Converted amounts (≈) assume the structure as drawn. Where two headings read alike, the source gives them in different places.

Key:
[1] = test system: Trichomonas vaginalis; assay: In vitro activity against T. vaginalis (IC50 determination); format: cell-based; details: 37° C., aerobic, Modified Diamonds Medium
Procedure: The antiprotozoal e.g. antitrichomonal, activity of the compounds of the present invention may be assessed by conventional methods, for example by determining the minimum inhibition concentration (m.i.c.) or 50% inhibition level (IC50).
Modified Diamonds Medium (MDM) was prepared according to the method described in J. Kulda et al., American Journal of Obstetrics and Gynaecology 1970, 108, 908-18 and 4 cm^3 of the medium was pipetted into each of a series of tubes (usually 16 tubes). To each tube was added 0.5 cm^3 of varying concentration of a solution (usually in ethanol+MDM) or suspension of the test drug. Duplicate tubes for each drug concentration were prepared.
Finally, to each tube was added T. vaginalis (0.5 cm^3) at a concentration of 1×10^5 cm^-3,) to give a final trichomonad concentration of 1×10^4 cm^-3 in each tube. The tubes were then incubated (aerobically) at 37° C. and the resulting trichomonad numbers were counted at 24 and 48 hours using a haemacytometer.
This information was then used to determine the 50% inhibition concentration (IC50).

[2] = test system: Candida albicans; assay: In vitro activity against Candida albicans (minimum inhibition concentration); format: cell-based; details: Yeast Nitrogen Base (YNB) broth; salt form given per compound
Procedure: The antifungal activity of the compounds of the present invention may be evaluated by determining the minimum fungistatic (inhibition) concentration (m.i.c.). This test is usually performed by preparing a series of plates or tubes containing a suitable nutrient medium, each plate or tube also containing a different concentration of the test compound and then inoculating the medium with the fungal species. After an incubation period the plates are examined visually for the presence or absence of fungal growth. The m.i.c. is the minimum concentration required to prevent fungal growth.
Minimum Inhibition Concentrations (MICs) of compounds of the present invention vs. C. albicans were determined.
The solution was filter sterilised with a 0.45 μm membrane filter unit and was then further diluted with sterile distilled water (SDW)-YNB solution: SDW (1:5).

[3] = 24 hr, 1×10^4 trichomonads cm^-3, read-out: IC50 24 hr
[4] = 48 hr, 1×10^4 trichomonads cm^-3, read-out: IC50 48 hr

| SMILES | IC50 [1, 3] [µg/mL] | IC50 [1, 4] [µg/mL] | MIC [2] [µg/mL] |
| --- | --- | --- | --- |
| CCCCOc1ccc2c(c1)CCN=C2/C=C/c1c(F)c(F)c(F)c(F)c1F [Example 23, (E)-6-Butyloxy-1-(2-pentafluorophenyl)vinyl-3,4-dihydroisoquinoline] | 1.1 (≈ 2.78 µM) | 2.3 (≈ 5.82 µM) | 6.2 |
| C=CCCOc1ccc2c(c1)CCN=C2C=Cc1ccc(Cl)cc1 [Example 45, 6-(But-3-enyloxy)-1-(4-chlorostyryl)-3,4-dihydroisoquinoline] | 2.2 (≈ 6.51 µM) | 2.8 (≈ 8.29 µM) | 6.2 |
| C/C=C/C=C/C1=NCCc2cc(OCCCC)ccc21 [Example 128, (E,E)-6-Butyloxy-3,4-dihydro-1-(penta-1,3-dienyl)isoquinoline] | 1.5 (≈ 5.57 µM) | 1.6 (≈ 5.94 µM) | 25 |
| Clc1ccc(C=CC2=NCCc3cc(OCc4ccccc4)ccc32)cc1 [Example 57, 6-Benzyloxy-1-(4-chlorostyryl)-3,4-dihydroisoquinoline] |  |  | 6.2 |
| CCCOc1ccc2c(c1)CCN=C2/C=C/C1CCCCC1 [Example 6, (E)-1-(2-Cyclohexylvinyl)-3,4-dihydro-6-propyloxyisoquinoline] | 0.4 (≈ 1.34 µM) | 0.4 (≈ 1.34 µM) | 25 |
| CCCCOc1ccc2c(c1)CCN=C2C=Cc1ccc(C)s1 [Example 144, 6-Butyloxy-3,4-dihydro-1-(2-(5-methyl-2-thienyl)vinyl)isoquinoline] |  |  | 1.6 |
| C(=CC1CCCCC1)C1=NCCc2cc(OCc3ccccc3)ccc21 [Example 2, 6-Benzyloxy-1-[2-cyclohexylvinyl]-3,4-dihydroisoquinoline] | 1 (≈ 2.89 µM) | 1.8 (≈ 5.21 µM) | 1.6 |
| CCCCOc1ccc2c(c1)CCN=C2C=Cc1ccc(C#N)cc1 [Example 13, 6-Butyloxy-3,4-dihydro-1-(4-cyanostyryl)isoquinoline] | 1.5 (≈ 4.54 µM) | 2.5 (≈ 7.57 µM) | 6.2 |
| CCCCOc1ccc2c(c1)CCN=C2/C=C/C1CCCCC1 [Example 1, (E)-6-Butyloxy-1-(2-cyclohexylvinyl)-3,4-dihydroisoquinoline] | 1.3 (≈ 4.17 µM) | 1.8 (≈ 5.78 µM) | 1.6 |
| CC(C)CCOc1ccc2c(c1)CCN=C2C=Cc1ccc(Cl)cc1 [Example 50, 1-(4-Chlorostyryl)-3,4-dihydro-6-(3-methylbutyloxy)-isoquinoline] |  |  | 6.2 |
| CCCOc1ccc2c(c1)CCN=C2C=Cc1ccc(Cl)cc1Cl [Example 31, 1-(2,4-Dichlorostyryl)-3,4-dihydro-6-propyloxyisoquinoline] |  |  | 6.2 |
| CCCCOc1ccc2c(c1)CCN=C2C=Cc1ccc(Cl)cc1 [Example 22, 6-Butyloxy-1-(4-chlorostyryl)-3,4-dihydroisoquinoline] |  |  | 3.1 |
| CCCCOc1ccc2c(c1)CCN=C2/C=C/c1ccsc1 [Example 107, (E)-6-Butyloxy-3,4-dihydro-1-(3-thienyl)vinylisoquinoline] |  |  | 25 |
| CCCCOc1ccc2c(c1)CCN=C2C=Cc1ccccc1 [Example 3, 6-Butyloxy-3,4-dihydro-1-styrylisoquinoline] | 3.7 (≈ 12.1 µM) | 8.8 (≈ 28.8 µM) | 6.2 |
| N#Cc1ccc(C=CC2=NCCc3cc(OCc4ccccc4)ccc32)cc1 [Example 52, 6-Benzyloxy-1-(4-cyanostyryl)-3,4-dihydroisoquinoline] | 2.9 (≈ 7.96 µM) | 3.2 (≈ 8.78 µM) | 6.2 |
| CC(C)COc1ccc2c(c1)CCN=C2C=Cc1ccccc1Cl [Example 47, 1-(2-Chlorostyryl)-3,4-dihydro-6-(2-methylpropyloxy)-isoquinoline] | 1.1 (≈ 3.24 µM) | 1.7 (≈ 5 µM) |  |
| O=[N+]([O-])c1ccc(C=CC2=NCCc3cc(Oc4ccc(Cl)cc4)ccc32)cc1 [Example 68, 6-(4-Chlorophenoxy)-3,4-dihydro-1-(4-nitrostyryl)-isoquinoline] | 5 (≈ 12.4 µM) | 5.3 (≈ 13.1 µM) |  |
| Clc1ccccc1C=CC1=NCCc2cc(OCC3CCCCC3)ccc21 [Example 39, 1-(2-Chlorostyryl)-6-cyclohexylmethoxy-3,4-dihydroisoquinoline] |  |  | 1.6 |
| CCCCOc1ccc2c(c1)CCN=C2/C(Br)=C/c1ccccc1 [Example 147, (Z)-6-Butyloxy-1-(1-bromo-2-phenylvinyl)-3,4-dihydroisoquinoline] | 0.2 (≈ 0.52 µM) | 0.3 (≈ 0.781 µM) |  |
| C(=C\c1ccsc1)/C1=NCCc2cc(OCc3ccccc3)ccc21 [Example 106, (E)-6-Benzyloxy-3,4-dihydro-1-(3-thienyl)vinyl isoquinoline] | 1.4 (≈ 4.05 µM) | 3.7 (≈ 10.7 µM) |  |
| CC(C)(C)c1ccc(C=CC2=NCCc3cc(OCc4ccccc4)ccc32)cc1 [Example 60, 6-Benzyloxy-1-(4-t-butylstyryl)-3,4-dihydroisoquinoline] | 5.6 (≈ 14.2 µM) | 10.5 (≈ 26.5 µM) |  |
| CCCCCCOc1cc2c(cc1OCCCCCC)C(C=Cc1ccc(Cl)cc1)=NCC2 [Example 165, 1-(4-Chlorostyryl)-6,7-dihexyloxy-3,4-dihydroisoquinoline] | 9 (≈ 19.2 µM) | 10 (≈ 21.4 µM) |  |
| CCCCOc1ccc2c(c1)CCN=C2C=Cc1ccc([N+](=O)[O-])cc1 [Example 19, 6-Butyloxy-3,4-dihydro-1-(4-nitrostyryl)isoquinoline] | 10 (≈ 28.5 µM) | 13.5 (≈ 38.5 µM) |  |
| CC(C)COc1ccc2c(c1)CCN=C2/C=C/C1CCCCC1 [Example 5, (E)-1-(2-Cyclohexylvinyl)-3,4-dihydro-6-(2-methylpropyloxy)isoquinoline] | 6.1 (≈ 19.6 µM) | 6.4 (≈ 20.5 µM) | 6.2 |
| C/C=C/C=C/C1=NCCc2cc(OCc3ccccc3)ccc21 [Example 130, (E,E)-6-Benzyloxy-3,4-dihydro-1-(penta-1,3-dienyl)isoquinoline] | 3.6 (≈ 11.9 µM) | 5.4 (≈ 17.8 µM) |  |
| CCCCCCOc1ccc2c(c1)CCN=C2C=Cc1ccc(C#N)cc1 [Example 75, 1-(4-Cyanostyryl)-6-hexyloxy-3,4-dihydroisoquinoline] | 0.3 (≈ 0.837 µM) | 0.8 (≈ 2.23 µM) |  |
